Measured values published in US20180148418A1, “AMIDO-SUBSTITUTED CYCLOHEXANE DERIVATIVES” (Bayer Pharma Aktiengesellschaft, priority 2015, published 2018).

What was measured:
[1] = tested on: wildtype Wnt signaling cascade; experiment: HEK293 TOP assay (Super TopFlash luciferase reporter, Wnt-3a stimulated); type: cell-based; conditions: Homo sapiens, HEK293, 16 h, HEK293 TOP reporter cells, Wnt3a at EC50, 16 hours
Outline: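 Compound series (50 μM down to 15 nM, 3.16-fold) diluted from DMSO 50-fold into CAFTY buffer, pH 7.4, 2 mM Ca^2+, 0.01% BSA, applied to Wnt-3a-stimulated HEK293 TopFlash and FOP reporter lines in parallel. Cells seeded 10000/well 24 h before; luciferase signal measured.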

TNKS1 = target: T1, TNKS1 (Homo sapiens, UniProt O95271); experiment: TNKS1 Assay B (auto-parsylation, [3H]-NAD+ SPA); type: biochemical; conditions: 6 nM TNKS1, auto-parsylation, over night at room temperature
T1 construct: purchased BPS Bioscience, San Diego, USA 80579 (TNKS1 Histone Ribosylation Assay Kit)
T1 sequence (O95271 1-1327): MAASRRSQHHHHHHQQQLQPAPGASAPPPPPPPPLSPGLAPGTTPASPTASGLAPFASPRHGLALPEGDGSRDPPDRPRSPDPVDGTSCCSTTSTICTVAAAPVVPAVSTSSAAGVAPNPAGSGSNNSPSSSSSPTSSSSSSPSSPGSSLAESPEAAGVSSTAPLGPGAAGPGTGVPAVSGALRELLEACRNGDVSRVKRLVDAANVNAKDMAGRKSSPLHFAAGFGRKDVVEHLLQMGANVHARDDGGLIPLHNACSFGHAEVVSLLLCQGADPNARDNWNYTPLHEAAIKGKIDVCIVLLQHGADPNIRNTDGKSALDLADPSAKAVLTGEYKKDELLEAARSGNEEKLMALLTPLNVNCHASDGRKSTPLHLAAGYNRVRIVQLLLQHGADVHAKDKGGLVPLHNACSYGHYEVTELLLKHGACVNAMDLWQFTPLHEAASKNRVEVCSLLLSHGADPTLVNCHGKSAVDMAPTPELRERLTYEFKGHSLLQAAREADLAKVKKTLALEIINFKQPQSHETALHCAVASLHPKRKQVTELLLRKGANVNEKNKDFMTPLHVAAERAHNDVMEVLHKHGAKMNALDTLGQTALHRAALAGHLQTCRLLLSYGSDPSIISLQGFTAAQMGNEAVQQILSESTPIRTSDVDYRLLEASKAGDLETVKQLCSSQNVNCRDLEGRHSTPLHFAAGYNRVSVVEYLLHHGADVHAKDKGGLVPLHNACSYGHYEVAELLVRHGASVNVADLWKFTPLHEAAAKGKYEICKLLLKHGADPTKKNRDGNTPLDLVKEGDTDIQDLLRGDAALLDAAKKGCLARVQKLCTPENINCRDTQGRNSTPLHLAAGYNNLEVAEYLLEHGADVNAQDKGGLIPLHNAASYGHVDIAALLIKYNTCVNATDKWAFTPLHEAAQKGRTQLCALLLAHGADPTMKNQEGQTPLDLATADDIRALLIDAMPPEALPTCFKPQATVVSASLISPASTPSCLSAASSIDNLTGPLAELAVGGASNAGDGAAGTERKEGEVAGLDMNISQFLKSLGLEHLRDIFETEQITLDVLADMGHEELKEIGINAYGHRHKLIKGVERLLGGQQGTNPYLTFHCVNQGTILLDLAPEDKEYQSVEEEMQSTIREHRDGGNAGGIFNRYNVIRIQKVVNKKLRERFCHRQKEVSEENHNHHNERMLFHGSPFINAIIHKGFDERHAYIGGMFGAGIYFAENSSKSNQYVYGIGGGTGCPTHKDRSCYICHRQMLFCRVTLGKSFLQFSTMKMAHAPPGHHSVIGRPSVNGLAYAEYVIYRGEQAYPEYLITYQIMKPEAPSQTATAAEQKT
Method: The potency of selected compounds according to the invention was assessed applying a modified in vitro inhibition assay. Here, the TNKS1 catalyzed NAD^+-dependent ribosylation of the enzyme itself (auto-parsylation) was detected using [^3H]-NAD^+ as substrate and applying the scintillation proximity assay (SPA) method to detect tritium-labeled, parsylated TNKS1. The intensity of the readout signal is proportional to the incorporated [^3H]-NAD^+. Inhibition of TNKS1 leads to a decreased incorporation of [^3H]-NAD^+ and consequently to a lower readout signal intensity. The concentration of a test compound which inhibits the enzyme activity by 50% (corresponds to half of the normed readout signal intensity) is reported as IC50.
Protocol Auto-Parsylation Assay
The assay was conducted in a 96 well MTP format with the identical TNKS1 enzyme sample and NAD^+ sample as in the histone ribosylation assay with the following modifications: TNKS1 enzyme sample was diluted with a modified assay buffer (50 mM MES pH 7.0, 1 mM DTT, 0.01% Triton X-100) to a final concentration of 6 nM TNKS1 and 10×NAD^+ solution was diluted with the modified assay buffer (s. above) to a final 0.445×NAD^+ solution doped with 100 Bq/μl [^3H]-NAD^+[Catalog #NET443H050UC, Perkin Elmer, Waltham, Mass., USA]. Substrate solution (10 μl) was incubated with different test compound concentrations (2.5 ul in 10% DMSO in modified assay buffer) or control (2.5 ul 10% DMSO in modified assay buffer only) and enzyme (10 μl) over night at room temperature. Incorporated tritium was measured after addition of 50 μl SPA beads (1 mg/ml) [Catalog #RPNQ0095 20 mg/ml, Perkin Elmer, Waltham, Mass., USA; diluted 1:10 with Dulbecco's phosphate buffered saline, PBS Catalog #D8537, Sigma-Aldrich, Steinheim, Germany] and detection of the photon emission with a beta count plate reader [Wallac MicroBeta®, Perkin Elmer, Waltham, Mass., USA].

| Compound | IC50 [1] | IC50 (TNKS1) |
| --- | --- | --- |
| COCC(C)NC(=O)c1nc[nH]c1C(=O)N[C@H]1CC[C@H](C(=O)Nc2cnccc2Cl)CC1 (stereo partly drawn) [Example 99, N^5-{trans-4-[(4-chloropyridin-3-yl)carbamoyl]cyclohexyl}-N^4-(1-methoxypropan-2-yl)-1H-imidazole-4,5-dicarboxamide] | 0.051 µM | 0.068 µM |
| Cc1cc(NC(=O)[C@H]2CC[C@H](NC(=O)c3[nH]cnc3C(=O)NCC(C)(C)O)CC2)c(Cl)cc1F [Example 100, N^5-{trans-4-[(2-chloro-4-fluoro-5-methylphenyl)carbamoyl]cyclohexyl}-N^4-(2-hydroxy-2-methylpropyl)-1H-imidazole-4,5-dicarboxamide] | 0.2 µM | 0.18 µM |
| COC(C)(C)CNC(=O)c1nc[nH]c1C(=O)N[C@H]1CC[C@H](C(=O)Nc2cc(C)c(F)cc2Cl)CC1 [Example 101, N^5-{trans-4-[(2-chloro-4-fluoro-5-methylphenyl)carbamoyl]cyclohexyl}-N^4-(2-methoxy-2-methylpropyl)-1H-imidazole-4,5-dicarboxamide] | 0.36 µM | 0.16 µM |
| Cc1cc(C)n2ncc(C(=O)N[C@H]3CC[C@H](C(=O)Nc4ccncc4Cl)CC3)c2n1 [Example 102, N-{trans-4-[(3-chloropyridin-4-yl)carbamoyl]cyclohexyl}-5,7-dimethylpyrazolo[1,5-a]pyrimidine-3-carboxamide] | 0.12 µM | 0.33 µM |
| O=C(N[C@H]1CC[C@H](C(=O)Nc2ccncc2Cl)CC1)c1cnc2cccnn12 [Example 103, N-{trans-4-[(3-chloropyridin-4-yl)carbamoyl]cyclohexyl}imidazo[1,2-b]pyridazine-3-carboxamide] | 0.41 µM | 0.52 µM |
| Cc1cnc2c(C(=O)N[C@H]3CC[C@H](C(=O)Nc4ccncc4Cl)CC3)cnn2c1 [Example 104, N-{trans-4-[(3-chloropyridin-4-yl)carbamoyl]cyclohexyl}-6-methyl pyrazolo[1,5-a]pyrimidine-3-carboxamide] | 0.088 µM | 0.063 µM |
| O=C(N[C@H]1CC[C@H](C(=O)Nc2ccncc2Cl)CC1)c1cnn2cccnc12 [Example 105, N-{trans-4-[(3-chloropyridin-4-yl)carbamoyl]cyclohexyl}pyrazolo[1,5-a]pyrimidine-3-carboxamide] | 0.24 µM | 0.19 µM |
| CCOC(=O)c1cnc2c(C(=O)N[C@H]3CC[C@H](C(=O)Nc4ccc(F)cc4Cl)CC3)cnn2c1 [Example 106, ethyl 3-({trans-4-[(2-chloro-4-fluorophenyl)carbamoyl]cyclohexyl}carbamoyl)pyrazolo[1,5-a]pyrimidine-6-carboxylate] | 0.4 µM | 0.049 µM |
| O=C(N[C@H]1CC[C@H](C(=O)Nc2ccc(F)cc2Cl)CC1)c1cnn2ccc(N3CCOCC3)nc12 [Example 107, N-{trans-4-[(2-chloro-4-fluorophenyl)carbamoyl]cyclohexyl}-5-(morpholin-4-yl)pyrazolo[1,5-a]pyrimidine-3-carboxamide] | 0.88 µM | 0.12 µM |
| O=C(N[C@H]1CC[C@H](C(=O)Nc2ccc(F)cc2Cl)CC1)c1cnn2ccc(N3CCCC3)nc12 [Example 108] | 0.18 µM | 0.052 µM |
| CN1CCN(c2ccn3ncc(C(=O)N[C@H]4CC[C@H](C(=O)Nc5ccc(F)cc5Cl)CC4)c3n2)CC1 [Example 109] | 3 µM | 0.062 µM |
| COCc1cc(C)n2ncc(C(=O)N[C@H]3CC[C@H](C(=O)Nc4ccc(F)cc4Cl)CC3)c2n1 [Example 110, N-{trans-4-[(2-chloro-4-fluorophenyl)carbamoyl]cyclohexyl}-5-(methoxymethyl)-7-methylpyrazolo[1,5-a]pyrimidine-3-carboxamide] | 0.27 µM | 0.31 µM |
| COCc1cc(C)nc2c(C(=O)N[C@H]3CC[C@H](C(=O)Nc4ccc(F)cc4Cl)CC3)cnn12 [Example 111, N-{trans-4-[(2-chloro-4-fluorophenyl)carbamoyl]cyclohexyl}-7-(methoxymethyl)-5-methylpyrazolo[1,5-a]pyrimidine-3-carboxamide] | 0.073 µM | 0.52 µM |
